Experimental data as given in the supplement of paper PMC10307832.

How the values were obtained:
Assay in all cases: relative viability (nuclei count vs DMSO), 5 days (fraction); higher = more cells survive
[1] = compound: C1=CC2=NC=CN=C2C=C1/C=C/3\C(=O)NC(=O)S3 + C[C@@H](Oc1cc(-c2cnn(C3CCNCC3)c2)cnc1N)c1c(Cl)ccc(F)c1Cl [Crizotinib] (partner 1 µM)
Procedure, shortened: (§1)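 Lung cancer cell lines were pin-tool dosed in 1536-well plates on the day after seeding, with either a lone drug or a fixed anchor-drug dose plus five library-drug doses (not always all listed) in √10 steps. Nuclei were counted on 4× images after 5 days. Relative viability is the ratio of treated-well to vehicle-well nuclei counts, with each value a median of duplicate plates.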

[2] = compound: C1=CC2=NC=CN=C2C=C1/C=C/3\C(=O)NC(=O)S3 + C[C@]1(O)C[C@@H](c2nc(-c3ccc4ccc(-c5ccccc5)nc4c3)c3c(N)nccn32)C1 [Linsitinib] (partner 1 µM)
Procedure, shortened: as §1

BGJ398 + Palbociclib = compound: CCN1CCN(c2ccc(Nc3cc(N(C)C(=O)Nc4c(Cl)c(OC)cc(OC)c4Cl)ncn3)cc2)CC1 [BGJ398] + CC(=O)c1c(C)c2cnc(Nc3ccc(N4CCNCC4)cn3)nc2n(C2CCCC2)c1=O [Palbociclib] (partner 0.5 µM)
Procedure, shortened: as §1

BGJ398 + Decitabine = compound: CCN1CCN(c2ccc(Nc3cc(N(C)C(=O)Nc4c(Cl)c(OC)cc(OC)c4Cl)ncn3)cc2)CC1 [BGJ398] + Nc1ncn([C@H]2C[C@H](O)[C@@H](CO)O2)c(=O)n1 [Decitabine] (partner 2 µM)
Procedure, shortened: as §1

| Cell Line | relative viability ([1]; first compound 0.02 µM) | relative viability ([1]; first compound 0.06325 µM) | relative viability ([1]; first compound 0.2 µM) | relative viability ([1]; first compound 0.6325 µM) | relative viability ([1]; first compound 2 µM) | relative viability ([2]; first compound 0.02 µM) | relative viability ([2]; first compound 0.06325 µM) | relative viability ([2]; first compound 0.2 µM) | relative viability ([2]; first compound 0.6325 µM) | relative viability ([2]; first compound 2 µM) | relative viability (BGJ398 + Palbociclib; first compound 0.01 µM) | relative viability (BGJ398 + Palbociclib; first compound 0.03162 µM) | relative viability (BGJ398 + Palbociclib; first compound 0.1 µM) | relative viability (BGJ398 + Palbociclib; first compound 0.3162 µM) | relative viability (BGJ398 + Palbociclib; first compound 1 µM) | relative viability (BGJ398 + Decitabine; first compound 0.01 µM) | relative viability (BGJ398 + Decitabine; first compound 0.03162 µM) | relative viability (BGJ398 + Decitabine; first compound 0.1 µM) | relative viability (BGJ398 + Decitabine; first compound 0.3162 µM) | relative viability (BGJ398 + Decitabine; first compound 1 µM) |
| --- | --- | --- | --- | --- | --- | --- | --- | --- | --- | --- | --- | --- | --- | --- | --- | --- | --- | --- | --- | --- |
| NCI-H2023 | 0.707 | 0.693 | 0.608 | 0.61 | 0.613 | 0.626 | 0.787 | 0.611 | 0.568 | 0.632 | 0.341 | 0.493 | 0.285 | 0.456 | 0.404 | 0.197 | 0.226 | 0.23 | 0.218 | 0.211 |
| NCI-H2085 | 0.897 | 0.917 | 0.766 | 0.829 | 0.937 | 0.807 | 0.886 | 0.826 | 0.806 | 0.969 | 0.494 | 0.476 | 0.472 | 0.447 | 0.521 | 0.528 | 0.578 | 0.544 | 0.535 | 0.547 |
| NCI-H2087 | 0.849 | 0.954 | 0.707 | 0.804 | 0.8 | 1.07 | 0.911 | 0.996 | 0.937 | 0.954 | 0.266 | 0.224 | 0.204 | 0.282 | 0.184 | 0.178 | 0.288 | 0.263 | 0.325 | 0.234 |
| NCI-H2126 | 0.995 | 1.11 | 0.97 | 0.974 | 0.957 | 0.682 | 0.773 | 0.715 | 0.688 | 0.685 | 0.374 | 0.344 | 0.36 | 0.351 | 0.335 | 0.608 | 0.601 | 0.611 | 0.612 | 0.566 |
| NCI-H2347 | 0.679 | 0.645 | 0.672 | 0.717 | 0.916 | 1.01 | 0.957 | 0.957 | 0.993 | 0.92 | 0.427 | 0.467 | 0.477 | 0.47 | 0.422 | 0.608 | 0.621 | 0.612 | 0.621 | 0.563 |
| NCI-H2405 | 0.865 | 0.847 | 0.826 | 0.869 | 0.798 | 0.96 | 1.08 | 1.03 | 0.959 | 0.915 | 0.523 | 0.586 | 0.52 | 0.553 | 0.547 | 0.703 | 0.74 | 0.81 | 0.734 | 0.741 |
